In patent publication US20260209297A1, “ANTIMICROBIAL PEPTIDES AND MODIFICATIONS THEREOF” (priority 2022, published 2026):
Values after ≈ are worked out from the molar mass of the structure shown. Positions of bridges follow the written chain, without caps; N, C: chain ends. Non-standard residues stand in square brackets, D forms with d. Residues, ends and D or L forms follow the SMILES beside them. Dab = NCC[C@H](N)C(=O)O

Experiments:
[1] = test system: B. cinerea; assay: Semi-in planta gray mold assay on detached Nicotiana benthamiana leaves (drop inoculation); type: in vivo, Botrytis cinerea; conditions: for gray mold symptoms, drop inoculation assay: 3 and 6 μM
[2] = test system: Botrytis cinerea T-4; conditions: Table 18
[3] = test system: B. cinerea; assay: MIC antifungal assay in SFM culture media (with or without added salts); type: cell-based, Botrytis cinerea
[4] = test system: F. graminearum; type: cell-based, Fusarium graminearum
[5] = test system: Fusarium graminearum PH-1; type: cell-based; conditions: Fusarium graminearum PH-1; MIC Day 1; 96-well, resazurin viability

`CC[C@H](C)[C@H](NC(=O)[C@H](CCCNC(=N)N)NC(=O)[C@H](CS)NC(=O)[C@H](CCCNC(=N)N)NC(=O)CNC(=O)[C@@H](N)CO)C(=O)N[C@@H](CC(C)C)C(=O)N[C@@H](Cc1ccccc1)C(=O)N[C@@H](CCCNC(=N)N)C(=O)N[C@@H](CS)C(=O)N[C@@H](Cc1ccccc1)C(=O)N[C@@H](CS)C(=O)N[C@H](C(=O)N[C@@H](CCCCN)C(=O)N[C@@H](CC(N)=O)C(=O)N[C@@H](CS)C(N)=O)[C@@H](C)O` [GMA1C_V1] (H-SGRCRILFRCFCTKNC-NH2; N-terminus assumed) was tested, and the “gray mold symptoms, drop inoculation assay” value [1] was “failed to reduce disease symptoms”.

`CC[C@H](C)[C@@H]1NC(=O)[C@H](CCCNC(=N)N)NC(=O)[C@@H](NC(=O)[C@H](CCCNC(=N)N)NC(=O)CNC(=O)[C@@H](N)CO)CSSC[C@@H](C(N)=O)NC(=O)[C@H](CC(N)=O)NC(=O)[C@H](CCCCN)NC(=O)[C@H]([C@@H](C)O)NC(=O)[C@H](Cc2c[nH]c3ccccc23)NC(=O)[C@H](Cc2ccccc2)NC(=O)[C@H](Cc2c[nH]c3ccccc23)NC(=O)[C@H](CCCNC(=N)N)NC(=O)[C@H](Cc2ccccc2)NC(=O)[C@H](CC(C)C)NC1=O` [GMA1C_V2] (H-SGRCRILFRWFWTKNC-NH2; disulfide 4-16; N-terminus assumed) was tested, and the “MIC (μM) (SFM + 2 mM CaCl2)” value [2] was 3 µM, the “MIC (μM) (SFM + 100 mM KCl)” value [2] was over 12 µM and the “MIC (μM) (SFM + 100 mM NaCl)” value [2] was 3 µM. For the same molecule, the “gray mold symptoms, drop inoculation assay, comparison within the peptide family” value ([1]; 1.5 μM) was “more effective” and the “gray mold symptoms, drop inoculation assay” value [1] was “completely abrogated gray mold symptoms”.

For `CC[C@H](C)[C@@H]1NC(=O)[C@H](CCCNC(=N)N)NC(=O)[C@@H](NC(=O)[C@H](CCCNC(=N)N)NC(=O)CNC(=O)[C@@H](N)CO)CSSC[C@@H](C(N)=O)NC(=O)[C@H](CC(N)=O)NC(=O)[C@H](CCCCN)NC(=O)[C@H]([C@@H](C)O)NC(=O)[C@H](Cc2ccccc2)NC(=O)[C@H](Cc2ccc(O)cc2)NC(=O)[C@H](Cc2c[nH]c3ccccc23)NC(=O)[C@H](CCCNC(=N)N)NC(=O)[C@H](Cc2ccccc2)NC(=O)[C@H](CC(C)C)NC1=O` [GMA1C_V3] (H-SGRCRILFRWYFTKNC-NH2; disulfide 4-16; N-terminus assumed), the “MIC (μM) SFM” value [2] was 1.5 µM (≈ 3.07 µg/mL), the “MIC (μM) (SFM + 2 mM CaCl2)” value [2] was 6 µM and the “MIC (μM) (SFM + 100 mM KCl)” value [2] was over 12 µM. For the same molecule, the “MIC (μM) (SFM + 100 mM NaCl)” value [2] was 3 µM.

In the case of `C[C@@H](O)[C@H](NC(=O)[C@H](CS)NC(=O)[C@H](Cc1ccccc1)NC(=O)[C@H](CS)NC(=O)[C@H](CCCNC(=N)N)NC(=O)[C@H](CCCNC(=N)N)NC(=O)[C@H](CCCNC(=N)N)NC(=O)[C@H](Cc1ccccc1)NC(=O)CNC(=O)[C@H](CCCNC(=N)N)NC(=O)[C@H](CS)NC(=O)[C@H](CCCNC(=N)N)NC(=O)CN)C(=O)N[C@H](C(=O)N[C@@H](Cc1c[nH]cn1)C(=O)N[C@@H](CS)C(N)=O)[C@@H](C)O` [GMA4AC, reference compound] (H-GRCRGFRRRCFCTTHC-NH2), the “MIC (μM) Botrytis cinerea” value ([3]; SFM, Table 9) is reported as 6 µM, the “MIC (μM) SFM” value [2] is reported as 3 µM (≈ 5.88 µg/mL) and the “MIC (μM) Fusarium graminearum” value [4] is reported as 6 µM (≈ 11.8 µg/mL).

In the case of `C[C@@H](O)[C@H](NC(=O)[C@H](CS)NC(=O)[C@H](Cc1ccccc1)NC(=O)[C@H](CS)NC(=O)[C@H](CCCNC(=N)N)NC(=O)[C@H](CCCNC(=N)N)NC(=O)[C@H](CCCNC(=N)N)NC(=O)[C@H](Cc1ccccc1)NC(=O)CNC(=O)[C@H](CCCNC(=N)N)NC(=O)[C@H](CS)NC(=O)[C@H](CCCNC(=N)N)NC(=O)CNC(=O)CN)C(=O)N[C@H](C(=O)N[C@@H](Cc1c[nH]cn1)C(=O)N[C@@H](CS)C(N)=O)[C@@H](C)O` [GMA4C_AC, reference compound] (H-GGRCRGFRRRCFCTTHC-NH2; N-terminus assumed), the “antifungal activity against B. cinerea in presence of cations” value ([3]; 100 mM NaCl or 100 mM KCl) is reported as “retain their antifungal activity”, the “SFM + 2 mM CaCl2 MIC (μM)” value ([3]; B. cinerea, Table 4) is reported as >6 (a few μM and the “SFM + 2 mM CaCl2 MIC (μM)” value ([3]; Table 10) is reported as >6 (a few μM.

In the case of `NCC[C@H](NC(=O)CNC(=O)[C@@H](N)Cc1ccccc1)C(=O)N[C@@H](CS)C(=O)N[C@@H](CCN)C(=O)NCC(=O)N[C@@H](Cc1ccccc1)C(=O)N[C@@H](CCN)C(=O)N[C@@H](CCN)C(=O)N[C@@H](CCN)C(=O)N[C@@H](CS)C(=O)N[C@@H](Cc1ccccc1)C(=O)N[C@@H](CS)C(=O)N[C@@H](Cc1c[nH]c2ccccc12)C(=O)N[C@@H](CCN)C(=O)N[C@@H](Cc1c[nH]c2ccccc12)C(=O)N[C@@H](CS)C(=O)O` [GMA4C_V5, FG(Dab)C(Dab)GF(Dab)(Dab)(Dab)CFCW(Dab)WC] (H-FG[Dab]C[Dab]GF[Dab][Dab][Dab]CFCW[Dab]WC-OH; N-terminus assumed), the “SFM + 2 mM CaCl2 MIC (μM)” value ([3]; B. cinerea, Table 4) is reported as >6 (very μM and the “SFM + 2 mM CaCl2 MIC (μM)” value ([3]; Table 10) is reported as >6 (very μM.

For `CC[C@H](C)[C@H](NC(=O)[C@H](CCCNC(=N)N)NC(=O)[C@@H](NC(=O)[C@H](Cc1c[nH]c2ccccc12)NC(=O)[C@H](Cc1ccccc1)NC(=O)[C@H](Cc1c[nH]c2ccccc12)NC(=O)[C@H](CCCNC(=N)N)NC(=O)[C@H](CCCNC(=N)N)NC(=O)[C@H](CCCNC(=N)N)NC(=O)[C@H](Cc1ccccc1)NC(=O)CNC(=O)[C@H](CCCCN)NC(=O)[C@H](CS)NC(=O)[C@H](CCCNC(=N)N)NC(=O)CNC(=O)CN)[C@@H](C)O)C(=O)N[C@@H](CS)C(N)=O` [GMA4C_V6A] (H-GGRCKGFRRRWFWTRIC-NH2; N-terminus assumed), the “antifungal activity relative to the wild-type GMA4C_AC control, B. cinerea” value ([3]; in vitro, low cationic conditions) was “four-fold increase”.

With `CC(C)C[C@@H]1NC(=O)[C@@H](NC(=O)[C@H](C)NC(=O)CN)CSSC[C@@H](C(=O)N[C@@H](Cc2ccc(O)cc2)C(N)=O)NC(=O)[C@H](Cc2c[nH]cn2)NC(=O)[C@H](CCCNC(=N)N)NC(=O)[C@H](Cc2ccc(O)cc2)NC(=O)[C@H](Cc2ccc(O)cc2)NC(=O)[C@H](Cc2c[nH]c3ccccc23)NC(=O)[C@H](Cc2ccccc2)NC(=O)[C@H](Cc2c[nH]c3ccccc23)NC(=O)CNC(=O)[C@H](Cc2ccc(O)cc2)NC(=O)[C@H](Cc2c[nH]cn2)NC(=O)[C@H](CCCCN)NC(=O)[C@H](CO)NC(=O)[C@H](Cc2c[nH]cn2)NC(=O)[C@H](CCCNC(=N)N)NC(=O)[C@H](CC(N)=O)NC(=O)[C@H](CCCCN)NC1=O` [GMAOe1C_V3] (H-GACLKNRHSKHYGWFWYYRHCY-NH2; disulfide 3-21; N-terminus assumed) the “MIC (μM) SFM” value [2] was 1.5 µM (≈ 4.31 µg/mL), the “MIC (μM) (SFM + 2 mM CaCl2)” value [2] was 3 to 6 µM and the “MIC (μM) (SFM + 100 mM NaCl)” value [2] was 2 to 3 µM. For the same molecule, the “gray mold symptoms, drop inoculation assay, comparison within the peptide family” value ([1]; 1.5 μM) was “more effective”.

In the case of `CC(C)C[C@@H]1NC(=O)[C@@H](NC(=O)[C@H](C)NC(=O)CN)CSSC[C@@H](C(=O)N[C@@H](Cc2ccc(O)cc2)C(N)=O)NC(=O)[C@H](Cc2c[nH]cn2)NC(=O)[C@H](CCCNC(=N)N)NC(=O)[C@H](Cc2ccc(O)cc2)NC(=O)[C@H](Cc2ccc(O)cc2)NC(=O)[C@H](Cc2c[nH]c3ccccc23)NC(=O)[C@H](Cc2ccccc2)NC(=O)[C@H](Cc2ccccc2)NC(=O)CNC(=O)[C@H](Cc2ccc(O)cc2)NC(=O)[C@H](Cc2c[nH]cn2)NC(=O)[C@H](CCCCN)NC(=O)[C@H](CO)NC(=O)[C@H](Cc2c[nH]cn2)NC(=O)[C@H](CCCNC(=N)N)NC(=O)[C@H](CC(N)=O)NC(=O)[C@H](CCCCN)NC1=O` [GMAOe1C_V4] (H-GACLKNRHSKHYGFFWYYRHCY-NH2; disulfide 3-21; N-terminus assumed), the “MIC (μM) SFM” value [2] is reported as 1.5 µM (≈ 4.25 µg/mL) and the “MIC (μM) (SFM + 100 mM NaCl)” value [2] is reported as 6 µM.

`CC(C)C[C@H](NC(=O)[C@H](CS)NC(=O)[C@H](C)NC(=O)CN)C(=O)N[C@@H](CCCCN)C(=O)N[C@@H](CC(N)=O)C(=O)N[C@@H](CCCNC(=N)N)C(=O)N[C@@H](Cc1c[nH]cn1)C(=O)N[C@@H](CO)C(=O)N[C@@H](CCCCN)C(=O)N[C@@H](Cc1c[nH]cn1)C(=O)N[C@@H](Cc1ccc(O)cc1)C(=O)NCC(=O)N[C@@H](CS)C(=O)N[C@@H](Cc1ccc(O)cc1)C(=O)N[C@@H](CS)C(=O)N[C@@H](Cc1ccc(O)cc1)C(=O)N[C@@H](Cc1ccc(O)cc1)C(=O)N[C@@H](CCCNC(=N)N)C(=O)N[C@@H](Cc1c[nH]cn1)C(=O)N[C@@H](CS)C(=O)N[C@@H](Cc1ccc(O)cc1)C(N)=O` [GMAOe1C_WT, reference compound] (H-GACLKNRHSKHYGCYCYYRHCY-NH2; N-terminus assumed) was tested, and the “reducing gray mold disease symptoms (lesion sizes)” value ([1]; detached N. benthamiana leaves, 1.5 μM, 3 μM and 6 μM, 48 h) was “only effective at 6 μM”.

With “PD126.1.1: SEQ ID NO: 730 with N-terminal alanine; wild-type defensin-like protein, expressed in Pichia pastoris (KLCERRSKTWTGWCAKTSHCNKQCKDWERVEHGACHGEFLEKPVSAISNAHCKISF; N-terminal alanine added; listed as Prunus armeniaca)” the “F. graminearum PH-1 MIC Day 1” value [5] was over 12 µM.

“PD128.1.1: SEQ ID NO: 734 with N-terminal alanine; wild-type defensin-like protein, expressed in Pichia pastoris (RVCLRRSKTWTGFCGNTRGFDSQCKRWECALHGACHC; N-terminal alanine added; listed as Lepidium sativum)” was tested, and the “F. graminearum PH-1 MIC Day 1” value [5] was over 12 µM.

B1: PD91.1.1: SEQ ID NO: 578 with N-terminal alanine; Setaria viridis wild-type defensin, expressed in Pichia pastoris (protein, listed as Setaria viridis)
chain: AYMCTTQNRFFHGRCVNNLNCASSCVHGRLGTGGHCATRKRSAADPGVDIDWVWNRRICVCVFQC
modifications: N-terminal alanine added
notes: Setaria viridis wild-type defensin, expressed in Pichia pastoris
With B1 the “F. graminearum PH-1 MIC Day 1” value [5] was over 12 µM.

B2: PD97.1.1: SEQ ID NO: 608 with N-terminal alanine; Rubus chingii wild-type defensin, expressed in Pichia pastoris (protein, listed as Rubus chingii)
chain: GACPLVSKRSKTWSGFCGSSNNCNKQCRSWESAQHGACHNTYKTVLGVKVISGRACFCYFCKKHT
modifications: N-terminal alanine added
notes: Rubus chingii wild-type defensin, expressed in Pichia pastoris
With B2 the “F. graminearum PH-1 MIC Day 1” value [5] was 1.5 µM.

B3: PD127.1.1: SEQ ID NO: 732 with N-terminal alanine; wild-type defensin-like protein, expressed in Pichia pastoris (protein, listed as Potentilla micrantha)
chain: GACPLVQKRSKTWSGFCGSSNNCDKQCRTWEKAKHGACHATGDLKGTPRLKLRSCHARRSKDH
modifications: N-terminal alanine added
notes: wild-type defensin-like protein, expressed in Pichia pastoris
For B3, the “F. graminearum PH-1 MIC Day 1” value [5] was over 12 µM.
